≈ marks a conversion by molar mass, not a printed value. Structures can show the parent of a compound that is named as a salt. Where two headings read alike, the source gives them in different places.
Legend:
[1] = tested on: Pseudomonas RL 112; assay: MIC, in vitro dilution method, Pseudomonas RL 112 (Table III); type: cell-based; settings: RL112
Procedure, shortened: (§1)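 Bacteriostatic activity was determined in vitro by the dilution method against Gram-negative strains. Values are minimum inhibitory concentrations in μg/ml.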

[2] = tested on: Citrobacter RL 49; assay: MIC, in vitro dilution method, Citrobacter RL 49 (Table III); type: cell-based; settings: RL49
Procedure, shortened: as §1

[3] = tested on: Klebsiella RO 30; assay: MIC, in vitro dilution method, Klebsiella RO 30 (Table III); type: cell-based; settings: RO30
Procedure, shortened: as §1

[4] = tested on: Proteus vulgaris RL 99 bis; assay: MIC, in vitro dilution method, Proteus vulgaris RL 99 bis (Table III); type: cell-based; settings: RL99BIS
Procedure, shortened: as §1

[5] = tested on: Serrtia liquefaciens SL 1326 S; assay: MIC on strain not producing beta-lactamase, Serratia liquefaciens SL 1326 S (Table IV); type: cell-based; settings: SL1326S, not producing beta-lactamases
Description: (§2) To evaluate the stability of these products towards beta-lactamases, their MIC was determined on isogenic strains producing and not producing beta-lactamases.
(§3) The results are expressed in μg/ml in Table IV.

[6] = tested on: Escherichia coli SOL 90; assay: MIC, in vitro dilution method, Escherichia coli SOL 90 (Table III); type: cell-based; settings: SOL90; Escherichia coli SOL 90; dilution method; read-out: MIC
Procedure, shortened: as §1

[7] = tested on: Enterobacter RO 154; assay: MIC, in vitro dilution method, Enterobacter RO 154 (Table III); type: cell-based; settings: RO154; Enterobacter RO 154; dilution method; read-out: MIC
Procedure, shortened: as §1

[8] = tested on: Proteus vulgaris GN 76/C.1; assay: MIC on beta-lactamase producing strain Proteus vulgaris GN 76/C.1 (Table IV); type: cell-based; settings: GN76
Description: as §2, §3

[9] = tested on: Escherichia coli SOL 90; assay: septicemic model of the mouse, Escherichia coli SOL 90 (Table V); type: in vivo; settings: SOL90, sc, 96 h, mouse septicemia, sub-cutaneous, 1 to 5 hours after inoculation, 4 days observation, read-out: DE50 (the source's name)
Description: The therapeutic effectiveness of the products was determined on the septicemic model of the mouse. the septicemia was initiated by the intraperitoneal innoculation of 0.5 ml of a suitable dilution of a suspension of the Escherichia coli SOL 90 strain. The products were administered in solution in a phosphate buffer pH 7.0 in a volume of 0.2 ml sub-cutaneously to batches of 10 mice, 1 to 5 hours after innoculation of the microorganism. After 4 days of observation in the course of which the mortality was noted, the 50% effective doses (DE 50) were calculated by the Muench and Reed method.

[10] = tested on: Escherichia coli 255/L.7; assay: MIC on strain not producing beta-lactamase, Escherichia coli 255/L.7 (Table IV); type: cell-based
Description: as §2, §3

[11] = tested on: Escherichia coli 255; assay: MIC on beta-lactamase producing strain Escherichia coli 255 (Table IV); type: cell-based
Description: as §2, §3

[12] = tested on: Serratia RL 72; assay: MIC, in vitro dilution method, Serratia RL 72 (Table III); type: cell-based; settings: RL72
Procedure, shortened: as §1

[13] = tested on: Serrtia liquefaciens SL/326 A; assay: MIC on beta-lactamase producing strain Serratia liquefaciens SL/326 A (Table IV); type: cell-based
Description: as §2, §3

[14] = tested on: Proteus vulgaris GN 76/C.1/3; assay: MIC on strain not producing beta-lactamase, Proteus vulgaris GN 76/C.1/3 (Table IV); type: cell-based; settings: GN76, not producing beta-lactamases
Description: as §2, §3

[15] = tested on: Klebsiella RO 30; assay: septicemic model of the mouse, Klebsiella RO 30 (Table V); type: in vivo; settings: RO30, sc, 96 h, mouse septicemia, sub-cutaneous, 4 days observation, read-out: DE50 (the source's name)
[16] = Citrobacter RL 49, dilution method, read-out: MIC
[17] = Klebsiella RO 30, dilution method, read-out: MIC
[18] = Proteus vulgaris RL 99 bis, dilution method, read-out: MIC
[19] = Proteus vulgaris GN 76/C.1, producing beta-lactamases, read-out: MIC
[20] = Escherichia coli 255/L.7 *, not producing beta-lactamases, read-out: MIC
[21] = Escherichia coli 255, producing beta-lactamases, read-out: MIC

Row | Compound | MIC [1] [µg/mL] | MIC [2, 16] [µg/mL] | MIC [3, 17] [µg/mL] | MIC [4, 18] [µg/mL] | MIC [5] [µg/mL] | MIC [6] [µg/mL] | MIC [7] [µg/mL] | MIC [8, 19] [µg/mL] | ED50 [9] [mg/kg] | MIC [10, 20] [µg/mL] | MIC [11, 21] [µg/mL] | MIC [12] [µg/mL] | MIC [13] [µg/mL] | MIC [14] [µg/mL] | ED50 [15] [mg/kg] | also measured
1 | CC(C)(O/N=C(\C(=O)NC1C(=O)N2C(C(=O)O)=C(COC(=O)c3ccc(CN)cc3)C[S+]([O-])C12)c1csc(N)n1)C(=O)O (stereo not shown) [42 042] | 4 (≈ 6.3 µM) | ≤ 0.12 | ≤ 0.12 | ≤ 0.12 | ≤ 0.12 | ≤ 0.12 | 1 (≈ 1.58 µM) | ≤ 0.12 | 0.05 | ≤ 0.12 | ≤ 0.12 | 2 (≈ 3.15 µM) | 0.25 (≈ 0.394 µM) | ≤ 0.12 |  | 
2 | CC(C)(O/N=C(\C(=O)NC1C(=O)N2C(C(=O)O)=C(COC(=O)CCN)C[S+]([O-])C12)c1csc(N)n1)C(=O)O (stereo not shown) [41 730] | 4 (≈ 6.99 µM) | 0.25 (≈ 0.437 µM) | 0.25 (≈ 0.437 µM) | ≤ 0.12 | ≤ 0.12 | 0.5 (≈ 0.873 µM) | 0.25 (≈ 0.437 µM) | 0.25 (≈ 0.437 µM) | 1.4 | ≤ 0.12 | 0.25 (≈ 0.437 µM) | 1 (≈ 1.75 µM) | 0.5 (≈ 0.873 µM) |  | 0.79 | 
3 | CC(C)(O/N=C(\C(=O)NC1C(=O)N2C(C(=O)O)=C(COC(=O)CCCN)C[S+]([O-])C12)c1csc(N)n1)C(=O)O (stereo not shown) [41 854] | 4 (≈ 6.82 µM) | 0.5 (≈ 0.852 µM) | 0.25 (≈ 0.426 µM) | ≤ 0.12 | ≤ 0.12 | 0.25 (≈ 0.426 µM) | 2 (≈ 3.41 µM) | 0.25 (≈ 0.426 µM) | 0.23 | ≤ 0.12 | ≤ 0.12 | 0.5 (≈ 0.852 µM) | 0.25 (≈ 0.426 µM) |  | 0.19 | 
4 | NCC(=O)Nc1ccc(C(=O)OCC2=C(C(=O)O)N3C(=O)C(NC(=O)C(=NOC4(C(=O)O)CCC4)c4csc(N)n4)C3[S+]([O-])C2)cc1 (stereo not shown) [42 548] | 2 (≈ 2.9 µM) |  |  |  | ≤ 0.0312 | 0.25 (≈ 0.362 µM) | 0.25 (≈ 0.362 µM) |  |  | ≤ 0.0312 |  | 0.5 (≈ 0.725 µM) | 0.125 (≈ 0.181 µM) | 0.0625 (≈ 0.0906 µM) |  | MIC ([2]; Citrobacter): ≤ 0.125 µg/mL; MIC ([3]; Klebsiella): 0.125 µg/mL (≈ 0.181 µM); MIC ([4]; Proteus vulgaris): ≤ 0.125 µg/mL; MIC ([8]; Proteus vulgaris): 0.0625 µg/mL (≈ 0.0906 µM); MIC ([11]; Escherichia coli, 255): 0.625 µg/mL (≈ 0.906 µM)
5 | CC(C)(CN)C(=O)OCC1=C(C(=O)O)N2C(=O)C(NC(=O)/C(=N\OC(C)(C)C(=O)O)c3csc(N)n3)C2[S+]([O-])C1 (stereo not shown) [42 073] | 4 (≈ 6.66 µM) | 0.5 (≈ 0.832 µM) | 0.5 (≈ 0.832 µM) | 0.5 (≈ 0.832 µM) | ≤ 0.12 | 1 (≈ 1.66 µM) | 4 (≈ 6.66 µM) | 0.5 (≈ 0.832 µM) | 0.33 | 0.25 (≈ 0.416 µM) | 0.5 (≈ 0.832 µM) | 2 (≈ 3.33 µM) | 0.25 (≈ 0.416 µM) |  |  | 
6 | CC(C)(ON=C(C(=O)NC1C(=O)N2C(C(=O)O)=C(CSC(=O)c3ccc(CN)cc3)C[S+]([O-])C12)c1csc(N)n1)C(=O)O (stereo not shown) [compound 42119] | 8 (≈ 12.3 µM) | 0.25 (≈ 0.384 µM) | 0.5 (≈ 0.768 µM) | ≤ 0.12 | ≤ 0.06 | 0.5 (≈ 0.768 µM) | 8 (≈ 12.3 µM) | 0.12 (≈ 0.184 µM) | 0.16 | 0.12 (≈ 0.184 µM) | 0.25 (≈ 0.384 µM) | 4 (≈ 6.15 µM) | 0.25 (≈ 0.384 µM) |  |  | 
7 | CC(C)(O/N=C(\C(=O)NC1C(=O)N2C(C(=O)O)=C(COC(=O)C3CCNCC3)C[S+]([O-])C12)c1csc(N)n1)C(=O)O (stereo not drawn) [41 862, 7-[2-(2-Amino 4-thiazolyl)2-(2-carboxy 2-propyloxyimino)acetamido]3-(4-piperidinyl)carbonyl oxymethyl 3-cepheme 4-carboxylic1β-S-oxide acid trifluoroacetate syn isomer] | 4 | 0.25 | 0.25 | ≤ 0.12 | ≤ 0.12 | 0.25 | 1 | ≤ 0.12 | 0.13 |  | ≤ 0.12 | 0.5 | ≤ 0.25 | ≤ 0.12 | 0.1 | MIC ([10]; Escherichia coli, 255/L.7): 0.12 µg/mL
8 | CC(C)(ON=C(C(=O)NC1C(=O)N2C(C(=O)O)=C(COC(=O)C3CCN(C(=O)CN)CC3)C[S+]([O-])C12)c1csc(N)n1)C(=O)O (stereo not shown) [42 549] | 4 (≈ 5.97 µM) |  | 0.25 (≈ 0.373 µM) |  | ≤ 0.0312 | 0.25 (≈ 0.373 µM) | 0.25 (≈ 0.373 µM) |  |  | 0.0625 (≈ 0.0933 µM) | 0.125 (≈ 0.187 µM) | 0.5 (≈ 0.747 µM) | 0.125 (≈ 0.187 µM) | 0.0625 (≈ 0.0933 µM) |  | MIC ([2]; Citrobacter): ≤ 0.125 µg/mL; MIC ([4]; Proteus vulgaris): ≤ 0.125 µg/mL; MIC ([8]; Proteus vulgaris): ≤ 0.0312 µg/mL
9 | CC(C)(ON=C(C(=O)NC1C(=O)N2C(C(=O)O)=C(CSC(=O)C3CCNCC3)C[S+]([O-])C12)c1csc(N)n1)C(=O)O (stereo not shown) [compound 41973] |  |  |  |  | ≤ 0.12 |  |  | 0.5 (≈ 0.795 µM) | 0.22 | 0.25 (≈ 0.398 µM) | 0.25 (≈ 0.398 µM) |  | 0.25 (≈ 0.398 µM) |  | 0.4 | 
10 | CC(C)(O/N=C(\C(=O)NC1C(=O)N2C(C(=O)O)=C(COC(=O)CCCCCN)C[S+]([O-])C12)c1csc(N)n1)C(=O)O (stereo not shown) [41 855] | 8 (≈ 13 µM) | 1 (≈ 1.63 µM) | 0.25 (≈ 0.407 µM) | ≤ 0.12 | ≤ 0.12 | 0.25 (≈ 0.407 µM) | 2 (≈ 3.25 µM) | ≤ 0.12 | 0.16 | ≤ 0.12 | ≤ 0.12 | 0.5 (≈ 0.813 µM) | 0.25 (≈ 0.407 µM) | ≤ 0.12 | 0.17 | 
11 | CC(C)(O/N=C(\C(=O)NC1C(=O)N2C(C(=O)O)=C(COC(=O)[C@H]3CC[C@H](CN)CC3)C[S+]([O-])C12)c1csc(N)n1)C(=O)O (stereo partly shown) [42 117] | 4 (≈ 6.24 µM) | 0.25 (≈ 0.39 µM) | ≤ 0.12 | ≤ 0.12 | ≤ 0.06 | 0.25 (≈ 0.39 µM) | 1 (≈ 1.56 µM) | ≤ 0.06 | 0.11 | 0.06 (≈ 0.0936 µM) | 0.125 (≈ 0.195 µM) | 0.5 (≈ 0.78 µM) | 0.12 (≈ 0.187 µM) | ≤ 0.06 |  | 

Reference: US4656166A, “Antibiotic compounds derived from cephalosporins, process for their production and pharmaceutical compositions” (Sanofi, priority 1983, dated 1987)
